Ten compounds from PubChem BioAssay AID623945 (Vanderbilt Specialized Chemistry Center, 2012) can be followed below.

This experiment has as its target Muscarinic acetylcholine receptor M4 (Rattus norvegicus) (UniProt P08485). Kind of experiment: potentiation of rat M4 acetylcholine response – CHO cells, Gqi5 chimera, calcium, ACh EC20, selectivity assay for human M4 PAM optimization, SAR follow-up (AID 623945). The conditions noted are these: CHO rM4/Gqi5 calcium fluorescence.

Sequence of Muscarinic acetylcholine receptor M4 (Rattus norvegicus) (P08485 whole entry, looked up): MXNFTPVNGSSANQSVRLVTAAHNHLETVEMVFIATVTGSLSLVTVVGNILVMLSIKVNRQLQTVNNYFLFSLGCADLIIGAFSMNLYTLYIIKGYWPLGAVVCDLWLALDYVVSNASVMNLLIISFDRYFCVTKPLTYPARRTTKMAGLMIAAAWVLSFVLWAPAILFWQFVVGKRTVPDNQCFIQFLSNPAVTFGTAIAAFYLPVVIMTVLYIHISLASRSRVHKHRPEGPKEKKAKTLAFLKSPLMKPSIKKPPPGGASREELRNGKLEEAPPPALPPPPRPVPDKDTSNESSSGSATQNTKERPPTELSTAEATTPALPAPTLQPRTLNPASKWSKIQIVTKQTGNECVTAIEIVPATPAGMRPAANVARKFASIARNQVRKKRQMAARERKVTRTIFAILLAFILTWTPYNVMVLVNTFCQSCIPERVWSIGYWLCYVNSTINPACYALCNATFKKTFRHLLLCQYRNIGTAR

On to `COc1ccc(C)c2sc(NC(=O)c3ccncc3)nc12`, for which the EC50 (commonly the concentration giving half of the maximal effect) is 3210 nM. With `Cc1nc2sc(C(=O)NCc3ccc4c(c3)OCO4)c(N)c2c(C)c1Cl`, the EC50 was 62 nM. Consider `Cc1nc2sc(C(=O)NCc3ccccc3)c(N)c2c(C)c1Cl`, for which the EC50 is 126 nM. Turning to `Cc1nc2sc(C(=O)NCCc3ccncc3)c(N)c2c(C)c1Cl`, the EC50 is 229 nM. `Cc1nc2sc(C(=O)NCc3ccncc3)c(N)c2c(C)c1Cl`: the EC50 is 173 nM. The figure for `Cc1nc2sc(C(=O)NC3CC3)c(N)c2c(C)c1Cl` is 151 nM; for `Cc1nc2sc(C(=O)NCc3cccc(F)c3F)c(N)c2c(C)c1Cl` it is 114 nM; for `Cc1nc2sc(C(=O)NCc3cccnc3)c(N)c2c(C)c1Cl` it is 272 nM. With `Cc1nc2sc(C(=O)NCc3nccs3)c(N)c2c(C)c1Cl`, the half-maximal effective concentration (EC50) is 187 nM. With `Cc1nc2sc(C(=O)NCc3ccncn3)c(N)c2c(C)c1Cl`, the 50% effective concentration (EC50) is 527 nM.
